# In patent publication US7358379B2, “Steroid conjugates, preparation thereof and the use thereof” (Bionature E.A. Limited, priority 2002, dated 2008):
# Experiments:
# [1] = test system: membrane testosterone receptors in LNCaP cells; assay: Displacement binding of [3H]testosterone on LNCaP cell membranes; set-up: species or system human; settings: 5 nM [3H]testosterone, competitor 10^-12-10^-6 M
# Protocol: (§1) Cells, cultured in 150 cm^2 flasks without serum, were washed twice with phosphate-buffered saline (PBS), removed by scraping and centrifuged at 1500 rpm. Pelleted cells were homogenized by sonication in 50 mM Tris-HCl buffer pH 7.4 containing freshly added protease inhibitors (10 μg/ml PMSF and 1 μg/ml aprotinin). Unbroken cells were removed by centrifugation at 2500 g for 15 min. Membranes were obtained by centrifugation at 45,000 g for 1 hour, and washed once by the same buffer. Protein concentration was measured by the method of Bradford.
# (§2) Saturation binding experiments were performed in a final volume of 0.1 ml, containing cell membranes at a final protein concentration of 2 mg/ml and at least 6 different concentrations of [^3H]testosterone (ranging 2-50 nM) without (total binding) or with (non-specific binding) a 100-fold molar excess of unlabelled androgen (DHT). […] In both types of binding experiments, after an overnight incubation at 4° C., bound radioactivity was separated by filtration under reduced pressure through GF/B filters previously soaked in 0.5% polyethylenimine (PEI) in water and rinsed three times with ice-cold Tris-HCl buffer. Filters were mixed with 4 ml scintillation cocktail and the bound radioactivity was counted in a scintillation counter (Tricarb, Series 4000, Packard) with 60% efficiency for Tritium. […]
# [2] = test system: membrane testosterone receptors in LNCaP cells; assay: Saturation binding of [3H]testosterone to LNCaP cell membranes; set-up: species or system human; settings: [3H]testosterone 2-50 nM, LNCaP membranes 2 mg/ml, overnight 4° C., non-specific binding with excess DHT; read-out: KD (Scatchard analysis)
# Protocol: as §1, §2
# [3] = test system: FAK→PI-3 kinase→Cdc42/Rac1→actin reorganization in LNCaP cells; assay: Signalling FAK, PI-3 kinase, Cdc42/Rac1, actin reorganization (immunoprecipitation, kinase assays, affinity precipitation); format: cell-based, human
# Protocol: Testosterone-BSA or DHT-treated, as well as untreated (control) cells were washed three times with ice-cold PBS and suspended in cold lysis buffer containing 1% Nonidet P-40, 20 mM Tris pH 7.4 and 137 mM NaCl, supplemented with protease and phosphatase inhibitors. Cleared lysates were preadsorbed with protein A-Sepharose for 1 h at 4° C., centrifuged and the supernatants (equal amounts of protein) were subjected to immunoprecipitation using the indicated antibodies and the protein A-Sepharose beads.
# The lipid kinase activity of PI-3 kinase was measured by the method of Auger et al with minor modifications. Protein A-Sepharose beads containing immunoprecipitated phosphotyrosine proteins were washed three times with Buffer A (20 mM Tris pH 7.4, 137 mM NaCl, 1 mM CaCl2, 1 mM MgCl2, 1% Nonidet P-40, 0.1 mM Na3VO4), three times with 5 mM LiCl in 0.1 M Tris (pH 7.4) and twice with TNE (10 mM Tris pH 7.4, 150 mM NaCl, 5 mM EDTA, 0.1 mM Na3VO4). […]
# For immunoblot analysis, the cell lysates or the immunoprecipitates were suspended in Laemmli's sample buffer and separated by SDS-PAGE. […] Blots were developed using the ECL system and the band intensities were quantified by PC-based image analysis (Image Analysis Inc., Ontario, Canada). […]
# [4] = test system: membrane testosterone receptors in LNCaP cells; assay: Flow cytometry detection of membrane binding on LNCaP cells; set-up: species or system human; settings: 10^-7 M
# Protocol: LNCaP cells, cultured in serum free medium for 24 hrs, were detached from the culture flask by scraping and suspended in PBS at a density of 10^6 cells/ml. They were incubated at room temperature with 10^−7 M testosterone-BSA-FITC conjugate for different periods of time (1 min to 1 hour). A thousand-fold BSA-FITC was used to determine non-specific binding. Cells were analysed by flow cytometry using a Coulter Epics L-MCL apparatus (Beckman-Coulter Inc. Foullerton Calif., USA) in a sample size of 10,000 cells gated on the basis of forward and side scatter. Testosterone3-(O-carboxymethyl)oxime-BSA-FITC (named testosterone-BSA-FITC), testosterone3-(O-carboxymethyl)oxime-BSA (named testosterone-BSA), estradiol6-(O-carboxymethyl)oxime-BSA-FITC (named estradiol-BSA-FITC), progesterone3-(O-carboxymethyl)oxime-BSA-FITC (named progesterone-BSA-FITC) and BSA-FITC were obtained from Sigma (St Louis, Mo.).
# (§3) The presence of membrane testosterone receptors was equally identified using the testosterone analog testosterone3-(O-carboxymethyl)oxime-BSA-FITC, obtained from Sigma (St Louis, Mo.). This analog is not capable to penetrate the cells, because of a covalent attachment of the steroid with BSA. […] The membrane binding was equally verified by confocal laser microscopy, as shown in the right panel of FIG. 2.
# LNCaP cells = assay: Confocal laser microscopy of membrane binding on LNCaP cells; format: cell-based, human; settings: 30 min incubation
# Protocol: LNCaP cells were allowed to grow on poly-L-lysine coated glass coverslips for at least 48 hours before culture medium was replaced with serum free medium. After a 24-hour period, cells were washed twice with PBS and incubated with Testosterone-BSA-FITC for 30 min in the presence or in the absence of DHT. As a negative control BSA-FITC was used. Cells were then washed twice with PBS and fixed with 2% PFA in PBS for 30 min. Coverslips were mounted on to slides using a 1:1 (v/v) mixture of glycerol and Vestashield (Vector, Burlingame, Calif.). Specimens were analysed using a confocal laser scanning microscope (CLSM) (Leica TCS-NT, Lasertechnik, Heidelberg, Germany).
# as §3
# [5] = test system: actin cytoskeleton of LNCaP human prostate cancer cells; assay: Determination of monomeric and polymerized actin; format: cell-based; settings: 10^-7 M, 10 min
# Protocol: For measurements of the monomeric (Triton soluble) and polymerized (Triton insoluble) actin, LNCaP cells were incubated for 10 min with or without DHT or testosterone-BSA (10^−7 M). Then, 500 μl of Triton-extraction buffer (0.3% TritonX-100, 5 mM Tris, pH 7.4, 2 mM EGTA, 300 mM sucrose, 2 μM phalloidin, 1 mM PMSF, 10 μg/ml leupeptin, 20 μg/ml aprotinin, 1 mM sodium orthovanadate, and 50 mM NaF) were added, and the mixture was incubated for 5 minutes on ice. After removing the buffer, soluble proteins were precipitated with equal volumes of 6% PCA. The Triton-insoluble fraction remaining on the plate was precipitated with 1 ml of 3% PCA. Equal volumes of each fraction were subjected to SDS-polyacrylamide gel electrophoresis (SDS-PAGE). The resulting protein-bands were transferred onto nitrocellulose membrane, and the membrane was blocked with 5% nonfat dry milk in TBS-T (20 mM Tris pH 7.6, 137 mM NaCl, 0.05% Tween-20) for 1 h at room temperature. Antibody solutions (in TBS-T) were added for 1 h at room temperature [monoclonal mouse anti-actin first antibody (Amersham-Pharmacia, Bukinghamshire, UK) and second horseradish peroxidase-coupled antibody (Chemicon, Temecula, Calif.)]. Blots were developed using the ECL system (Amersham-Pharmacia, Bukinghamshire, UK) and the band intensities were quantified by PC-based image analysis (Image Analysis Inc., Ontario, Canada). […]
# [6] = test system: prostate cancer LNCaP cells; assay: Cell number by tetrazolium salt assay; format: cell-based, human; settings: 24 hours
# Protocol: The human prostate cancer LNCaP cell line, originally isolated from a lymph node metastasis of prostate adenocarcinoma, was purchased from DSMZ (Braunschweig, Germany). Cells were cultured in RPMI 1640 medium supplemented with 10% heat inactivated fetal bovine serum (FBS) at 37° C. in a humidified atmosphere of 5% CO2 in air. They were subcultured once a week and incubated in serum-free medium for 24 h before any experiment. All culture media were purchased from Gibco BRL (Life Technologies, Paisley, UK).
# Cell number was assayed using the tetrazolium salt assay. Cells were incubated for 3 h at 37° C. with the tetrazolium salt (3-(4,5 dimethylthiazol-2-yl)-2,5 diphenyl tetrazolium bromide, Sigma, St Louis, Mo.). Living cells reduced the dye to purple formazan seen as dark blue crystals. At the end of the incubation period they were dissolved with propanol-1 and the absorbance was measure at 575 nm, within one hour.
# In view of the above results, we incubated prostate cancer LNCaP cells with testosterone-BSA alone (10^−7 M) or together with Taxol® (10^−8 M) for 24 hours. […] In addition, a potentiation of the action of Taxol® by ˜7% was also found. […]
# [7] = test system: LNCaP tumors in nude mice; assay: In vivo effect in nude mice bearing implanted LNCaP tumors; settings: four weeks
# Protocol: FIG. 9 presents the effect of testosterone-BSA administration in nude mice, bearing implanted tumors. Arrows show the injection times of testosterone-BSA (500 μl of a 5×10^−6 M solution) with or without addition of 10 mg/kg Taxol®.
# Nude mice were injected in the back with 5×10^6 LNCaP cells diluted in Matrigel® (Sigma, St Louis, Mo.) in a total volume of 0.1 ml. After 4 weeks, macroscopical tumors were developed, and treatment was initiated, as follows: Drugs, diluted in PBS were injected intraperitoneally 3 times per week, in a total volume of 0.5 ml. Animals were divided in four groups: The first group received 5×10^−6 M BSA. The second group was injected with 5×10^−6 M testosterone-BSA conjugate. The third group was injected with 10 mg/ml Taxol®, while in the fourth group a combination of testosterone-BSA and Taxol® was introduced. Tumors were measured after four weeks of treatment. Tumors were excised, measured, weighted and send to a pathologist for further analysis.
# As presented in FIG. 9, testosterone-BSA induced a time-dependent decrease in tumor mass by 53%. Addition of Taxol® produces a dramatic decrease of tumor weight by 77%. […] Therefore it is possible that the decrease if tumor mass could be greater for longer periods of treatment In addition, apoptosis was observed histologically in all tumors studied.
compound,measurement,setting,value
C[C@]12CCC(=O)C[C@@H]1CC[C@@H]1[C@@H]2CC[C@]2(C)[C@@H](O)CC[C@@H]12 [DHT],displacement of radiolabeled testosterone,[1],produced a displacement of radiolabeled testosterone
CC(=O)[C@H]1CC[C@H]2[C@@H]3CCC4=CC(=O)CC[C@]4(C)[C@H]3CC[C@]12C [progesterone],lower affinity in displacing radiolabelled testosterone (fold),[1]; compared with DHT,10^2 fold
C[C@]12CC[C@H]3[C@@H](CCC4=CC(=O)CC[C@@]43C)[C@@H]1CC[C@@H]2O [testosterone],Kd,[2],10.9 nM
same,activation of signalling cascade FAK→PI-3 kinase→Cdc42/Rac1→actin reorganization,[3],less active than testosterone-BSA conjugate
testosterone3-(O-carboxymethyl)oxime-BSA [testosterone-BSA],time at which association with membrane receptors was observed,[4]; flow cytometry,1 min
same,time at which association with membrane receptors was maximal,"[4]; flow cytometry, unchanged after 30 min",10 min
same,membrane binding by flow cytometry,[4]; room temperature,specific membrane binding
same,localisation of staining (internalization),LNCaP cells,only membrane staining was found
same,ratio of soluble (monomeric) to insoluble (polymerised) actin,[5],significant decrease
same,potentiation of the action of Taxol®,[6]; testosterone-BSA 10^-7 M together with Taxol® 10^-8 M,~7%
same,decrease of cells,[6]; testosterone-BSA alone 10^-7 M,50%
same,decrease in tumor mass,"[7]; nude mice with LNCaP tumors, testosterone-BSA 5×10^-6 M i.p. 3 times per week",53%
same,decrease of tumor weight,"[7]; nude mice with LNCaP tumors, testosterone-BSA 5×10^-6 M with addition of Taxol®, i.p. 3 times per week",77%
same,tolerance of treatment,"[7]; nude mice, 0.5 ml of 5×10^-6 M intraperitoneally 3 times per week",supported very well
